These results are taken from ChEMBL document CHEMBL1150016, “Quinuclidine based NK-1 antagonists 2: determination of the absolute stereochemical requirements” (Bioorg Med Chem Lett, 1993).

As a reminder, the IC50 is the concentration needed to halve the response being measured. Read a high IC50 as a need for much substance.

The target in this test is Substance-P receptor (Homo sapiens, UniProt P25103). The test can be described thus: Tested for binding affinity by measuring displacement of [125I]SP from human NK-1 receptor in CHO Cells.
Substance-P receptor, sequence (P25103 whole entry): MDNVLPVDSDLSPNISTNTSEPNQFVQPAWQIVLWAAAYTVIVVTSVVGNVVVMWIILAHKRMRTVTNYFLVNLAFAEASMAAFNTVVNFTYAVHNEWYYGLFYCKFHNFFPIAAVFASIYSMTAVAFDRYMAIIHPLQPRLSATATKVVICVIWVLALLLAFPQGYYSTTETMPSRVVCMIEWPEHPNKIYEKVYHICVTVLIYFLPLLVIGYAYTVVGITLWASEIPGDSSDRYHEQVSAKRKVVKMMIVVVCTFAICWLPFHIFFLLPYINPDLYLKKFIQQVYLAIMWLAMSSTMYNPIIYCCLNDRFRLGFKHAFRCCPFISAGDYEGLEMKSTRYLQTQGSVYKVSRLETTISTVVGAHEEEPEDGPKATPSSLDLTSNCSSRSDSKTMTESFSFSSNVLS

Take `FC(F)(F)c1cc(CO[C@@H]2C3CCN(CC3)[C@H]2C(c2ccccc2)c2ccccc2)cc(C(F)(F)F)c1`: the IC50 is 270 nM.
The value for `FC(F)(F)c1cc(CO[C@@H]2C3CCN(CC3)[C@@H]2C(c2ccccc2)c2ccccc2)cc(C(F)(F)F)c1` was 570 nM; that for `FC(F)(F)c1cc(CO[C@H]2C3CCN(CC3)[C@@H]2C(c2ccccc2)c2ccccc2)cc(C(F)(F)F)c1` was 0.7 nM.
For the compound `FC(F)(F)c1cc(CO[C@H]2C3CCN(CC3)[C@H]2C(c2ccccc2)c2ccccc2)cc(C(F)(F)F)c1` [L-709210], the IC50 worked out at 1.3 nM.
